13 molecules from ChEMBL document CHEMBL5247631, “Ferroptosis-related small-molecule compounds in cancer therapy: Strategies and applications” (Eur J Med Chem, 2022) can be followed below.

A short description of assay [1]: Cytotoxicity against human BJeLR cells overexpress oncogenic RAS assessed as induction of cell death. In kind it is functional, cell-based.
Assay [2] has as its system HCT-116. The experiment in a line: Antiproliferative activity against human HCT-116 cells assessed as reduction in cell viability incubated for 48 hrs by MTT assay. The following applies: HCT-116, 48 h. It is filed as functional, cell-based. On the technique in general: Tetrazolium assays rely on reduction of a dye to a coloured formazan, in cell work by metabolically active cells.

Assay [3] relates to DLD-1. The experiment in a line: Antiproliferative activity against human DLD-1 cells assessed as reduction in cell viability incubated for 48 hrs by MTT assay. It is filed as functional, cell-based. The settings on record: DLD-1, 48 h.
Assay [4] can be described thus: Induction of ferroptosis in human BJeLR cells assessed as inhibition of (cystine-glutamate antiporter) system Xc- mediated cystine transport. It is filed as functional, cell-based. The settings on record: bjelr cell.
Assay [5] can be described thus: Anticancer activity against human OCI-Ly8 cells assessed as reduction in cell viability incubated for 24 hrs by CellTiter-Glo luminescent assay. In kind it is functional, cell-based. The settings on record: OCI-Ly8, 24 h.
For assay [6], the system named is SU-DHL-6. The experiment in a line: Anticancer activity against human SU-DHL-6 cells assessed as reduction in cell viability incubated for 24 hrs by CellTiter-Glo luminescent assay. In kind it is functional, cell-based. The following applies: SU-DHL-6, 24 h.
For assay [7], the system named is SU-DHL-2. The experiment in a line: Anticancer activity against human SUDHL2 cells assessed as reduction in cell viability incubated for 24 hrs by CellTiter-Glo luminescent assay. The following applies: SU-DHL-2, 24 h. It is filed as functional, cell-based.
The test system of assay [8] is SU-DHL-5. The experiment in a line: Anticancer activity against human SU-DHL-5 cells assessed as reduction in cell viability incubated for 24 hrs by CellTiter-Glo luminescent assay. It is filed as functional, cell-based. The following applies: SU-DHL-5, 24 h. (In general: In ATP-based viability assays light output follows the ATP content of the culture.)
Assay [9] is described as follows: Anticancer activity against human BJeLR cells assessed as reduction in cell viability incubated for 24 hrs by CellTiter-Glo luminescent assay. It is filed as functional, cell-based.
Assay [10] has as its system SU-DHL-16. The experiment in a line: Anticancer activity against human SU-DHL-16 cells assessed as reduction in cell viability incubated for 24 hrs by CellTiter-Glo luminescent assay. The settings on record: SU-DHL-16, 24 h. In kind it is functional, cell-based.
In assay [11] the test system is DOHH-2. The experiment in a line: Anticancer activity against human DOHH-2 cells assessed as reduction in cell viability incubated for 24 hrs by CellTiter-Glo luminescent assay. In kind it is functional, cell-based. The settings on record: DOHH-2, 24 h.
Assay [12] has as its system SU-DHL10. The experiment in a line: Anticancer activity against human SU-DHL-10 cells assessed as reduction in cell viability incubated for 24 hrs by CellTiter-Glo luminescent assay. In kind it is functional, cell-based. The following applies: SU-DHL10, 24 h.
The test system of assay [13] is SK-MEL-28. The experiment in a line: Antiproliferative activity against human SK-MEL-28 cells harboring BRAF V600E mutant assessed as cell viability incubated for 72 hrs by crystal violet staining based assay. In kind it is functional. The following applies: SK-MEL-28, 72 h.
In assay [14] the test system is G-361. The experiment in a line: Antiproliferative activity against human G-361 cells harboring BRAF V600E mutant assessed as cell viability incubated for 72 hrs by crystal violet staining based assay. It is filed as functional. The settings on record: G-361, 72 h.
Assay [15] is described as follows: Anticancer activity against human PHMLER expressing CD24low phenotype cells assessed as reduction in cell viability incubated for 72 hrs. It is filed as functional, cell-based.
The test system of assay [16] is MDA-MB-231. The experiment in a line: Antiproliferative activity against human MDA-MB-231 cells assessed as inhibition of cell viability incubated for 72 hrs by MTT assay. In kind it is functional, cell-based. The settings on record: MDA-MB-231, 72 h.
Assay [17] relates to HT-1080. The experiment in a line: Induction of ferroptosis in human HT-1080 cells assessed as inhibition of (cystine-glutamate antiporter) system Xc- mediated cystine transport. In kind it is functional, cell-based.
Assay [18] relates to LN-229. The experiment in a line: Induction of ferroptosis in human LN-229 cells assessed as GPX4 degradation. It is filed as functional, cell-based.
The subject of assay [19] is U-118-MG. The experiment in a line: Induction of ferroptosis in human U-118-MG cells assessed as GPX4 degradation. In kind it is functional, cell-based.
In assay [20] the test system is ES-2. The experiment in a line: Anticancer activity against human ES2 cells assessed as reduction in cell viability incubated for 72 hrs by Alamar Blue viability assay. It is filed as functional, cell-based. The following applies: ES-2, 72 h. (The colour change of resazurin is a common sign of viable cells or microbes.)
The test system of assay [21] is NCI-N87. The experiment in a line: Anticancer activity against human NCI-N87 cells assessed as inhibition of cell viability incubated for 24 hrs by CCK-8 assay. It is filed as functional, cell-based. The following applies: NCI-N87, 24 h.
Assay [22] has as its system AGS. The experiment in a line: Anticancer activity against human AGS cells assessed as inhibition of cell viability incubated for 24 hrs by CCK-8 assay. In kind it is functional, cell-based.

By IC50 is commonly meant the midpoint of a concentration-inhibition curve.

As to `O=S(=O)(c1ccc2c(c1)C(=NO)c1cc(S(=O)(=O)N3CCCCC3)ccc1-2)N1CCCCC1`, the IC50 in assay [1] is above 1000 nM.

With `COc1ccc2oc(=N)c(C(N)=S)cc2c1`, the IC50 in assay [2] was found to be 44500 nM; in assay [3], 50200 nM.

Consider `CC(C)Oc1ccc(CN2CCNCC2)cc1-n1c(CN2CCN(C(=O)COc3ccc(Cl)cc3)CC2)nc2ccccc2c1=O`, for which, in assay [4], the IC50 came to 900 nM.

`CC(C)Oc1ccc(C(=O)Cn2ccnc2)cc1-n1c(CN2CCN(C(=O)COc3ccc(Cl)cc3)CC2)nc2ccccc2c1=O`: the IC50 in assay [5] came out at 1 nM; in assay [6] it was 1 nM; in assay [7] it was 21 nM; in assay [8] it was 1 nM; in assay [9] it was 3 nM; in assay [10], 12 nM. In addition, the figures for the IC50 in assay [11] and in assay [12] were 14 nM and 4 nM, respectively.

As for `Cc1cc(-c2nc(-c3ccc(OC(F)(F)F)cc3)no2)nn1Cc1ccnc(N2CCN(C3CC3)CC2)c1`, the IC50 was determined as 2400 nM in [13] and 4800 nM in [14].

In the case of `C#CCN[C@@H]1C=C[C@]2(O[C@H]([C@@H](CC)C(=O)[C@@H](C)[C@@H](O)[C@H](C)[C@@H]3O[C@@H]([C@@H](CC)C(=O)O)CC[C@@H]3C)[C@@H](C)C[C@H]2C)O[C@@]12CC[C@@](C)([C@H]1CC[C@](O)(CC)[C@H](C)O1)O2`, the IC50 in assay [15] stood at 100 nM.

Consider `C=C1C(=O)O[C@H]2[C@H]1CC/C(COC(=O)/C=C/c1c(OC)cccc1OC)=C\CC[C@@]1(C)O[C@@H]21`, for which the IC50 in assay [16] was 340 nM.

With `COC(=O)c1ccc([C@H]2c3[nH]c4ccccc4c3C[C@H](C(=O)OC)N2C(=O)CCl)cc1`, the IC50 in [17] and in assay [4] was 100 nM in each case.

On to `C#Cc1nc(C2=C(C)[C@H](O)CC2)cs1`, for which the IC50 in assay [17] came to 76000 nM.

For `O=S(=O)(NC1CCCCC1)c1ccc2c(c1)C(=NO)c1cc(S(=O)(=O)NC3CCCCC3)ccc1-2`, the IC50 in assay [18] was determined as 4200 nM; in assay [19], 2600 nM.

Turning to `CC1CC[C@@]23C[C@H](O)C(=O)[C@@]2(O)[C@]1(C)[C@H](OC(=O)CCl)C[C@@H](C1=CCn2c(=O)n(-c4ccccc4)c(=O)n2C1)[C@@H]3C` (stereo not given in full), the IC50 in assay [20] worked out at 1600 nM.

`C[C@@H]1CC[C@@]2(OC1)O[C@H]1C[C@H]3[C@@H]4CC=C5C[C@@H](O)C[C@@H](O[C@H]6O[C@H](C)[C@H](O)[C@H](O)[C@H]6O[C@@H]6O[C@@H](C)[C@H](O)[C@@H](O)[C@H]6O)[C@]5(C)[C@H]4CC[C@]3(C)[C@H]1[C@@H]2C`: the IC50 in [21] came out at 21300 nM; in assay [22], 10300 nM.

`CCCC[S@@](=N)(=O)CC[C@@H](N)C(=O)O`: the IC50 in assay [4] is below 10000 nM.
